These results are taken from US5972952A, “Neuroprotective pharmaceutical composition containing stereoisomers of arylcyclohexylamines” (Le Centre National De La Recherche Scientifique, priority 1996, dated 1999).

Test [1] concerns mixed neuronal and glial neocortical cells. In words: Protection of cultured neuronal cells against glutamate neurotoxicity (LDH release). In kind it is cell-based, Sprague-Dawley rat. To be noted: Rattus norvegicus, glutamate 500 μM for 5 min, 24 h, 100% = glutamate without test compound, read-out: % OF DEAD; for neurotoxicity, % of glutamate alone at 0.1 µM: test compound 0.1 μM; for neurotoxicity, % of glutamate alone at 1 µM: test compound 1 μM; for neurotoxicity, % of glutamate alone at 5 µM: test compound 5 μM; for neurotoxicity, % of glutamate alone at 10 µM: test compound 10 μM. The method, then: Cultures of mixed neuronal and glial neocortical cells were prepared from 18-day-old Sprague-Dawley rat foetuses (IFFA-Credo, St. Germain l'Arbresle, France). The cerebral hemispheres were rapidly dissected in Hanks' BSS supplemented with glucose (6 g/l), incubated in trypsine-EDTA (5 min at 35° C.), rinsed with calcium/magnesium-free glucosed Hanks' and mechanically dissociated. After centrifugation (10 min, 70 g), the cells were resuspended in the culture medium consisting of 87% Eagle's minimal essential medium (MEM), 10% horse serum and 0.6% glucose (without antibiotics), and plated on poly-d-lysine (10 μg/cm^2) coated coverslips, in 24-well dishes, to a final density of 4×10^5 cells/cm^2 in 400 μl/well. The cultures were maintained for 2-3 weeks at 35° C. in a humidified atmosphere (95% air/5% CO2), one-third of the medium being replaced every 4 days.
After 17-20 days in vitro, the culture medium was replaced with 400 μl of experimental medium (EM supplemented with glucose) containing the test compound for 5 min. at room temperature. This medium was replaced with the experimental medium containing the same concentration of test compound plus glutamate 500 μM for another 5 min. Finally, the cells were rinsed with the experimental medium and incubated for 24 h. The control cultures had received the same number of replacements of medium as the experimental ones, with standard experimental medium. The 100% neurotoxicity level was based on the effect of glutamate 500 μM for 5 min. The protective effect was quantified by estimation of the activity of the lactate dehydrogenase (LDH) released in the medium. Culture supernatant (100 μl) was added to phosphate buffer (875 μl, 125 mM, pH 7.6) containing 0.3 mM pyruvic acid and β-NADH (25 μl, 10 mg/ml). The decrease in absorbance was measured at 340 nm (Lockhart, et al., Brain Res. 630:36-40 (1993)).
Four concentrations of test compounds were used, i.e., 10, 5, 1, and 0.1 μM. The dead-cell population was determined by LDH enzymic activity and the results, presented in Table II, were compared with the 100% mortality based on the 500 μM glutamate treated cells without test compound protection.

In test [2] the target is PCP receptor. In words: [^3H]TCP binding to the PCP receptor (rat brain minus cerebellum homogenate). To be noted: inhibition of [^3H]TCP (1 nM) specific binding, 30 min, 25° C., pH 7.7.
Procedure: 1-[1-(2-thienyl)-2-methylcyclohexyl]piperidine (TCP) binding to the PCP receptor was performed as previously described. […] The rat brain (minus the cerebellum) was removed and homogenized with an Ultraturax (Ika Werke, Staufen, Germany, maximum setting) in a 50 mM Tris/HCl, pH 7.7 buffer for 20 s at 4° C. The homogenate was then centrifuged at 49,000 g for 20 min. and the pellet was resuspended in the same buffer and the homogenization-centrifugation steps performed a second time. The final pellet was resuspended in 10 volumes of a 50 mM Tris/Hepes, pH 7.7 buffer and used without further purification.
The homogenate (0.5-0.8 mg protein/ml) was incubated with N-[1-(2-thienyl) cyclohexyl]3,4-[^3 H]piperidine ([^3 H]TCP, 1 nM) (Amersham, Arlington Heights, Ill, 48 Ci/mmol) in a 5 mM Tris/Hepes, pH 7.7 buffer in the absence (total binding) and in the presence of the test compounds for 30 min. at 25° C. in a volume of 0.5 ml. […] The filters were rinsed twice with 5 ml of a 50 mM NaCl, Tris HCl 10 mM, pH 7.7 buffer and the radioactivity retained counted in 3.5 ml ACS (Amersham) with an Excel 1410 (LKB) liquid scintillation spectrophotometer. The nonspecific binding was determined in parallel experiments in the presence of 100 μM unlabeled TCP.

In the case of `C[C@@H]1CCCC[C@]1(c1ccco1)N1CCCCC1` [(1S,2R)1-[1-(2-Furanyl)-2-methylcyclohexyl]-piperidine], in test [1], the neurotoxicity, % of glutamate alone at 0.1 µM came to 92.5%; the neurotoxicity, % of glutamate alone at 1 µM worked out at 83.6%; the neurotoxicity, % of glutamate alone at 5 µM was 43.3%; the neurotoxicity, % of glutamate alone at 10 µM was 32.1%. The compound further gave an IC50 in test [2] of 5.5 ± 1.9 nM.

As for `C[C@@H]1CCCC[C@]1(c1cccs1)N1CCCCC1` [(1S,2R)1-[1-(2-Thienyl)-2-methylcyclohexyl]-piperidine], in test [1], the neurotoxicity, % of glutamate alone at 0.1 µM was 90.3%; the neurotoxicity, % of glutamate alone at 1 µM is 32.9%; the neurotoxicity, % of glutamate alone at 5 µM amounted to 27.2%; the neurotoxicity, % of glutamate alone at 10 µM turned out to be 29.7%.

A word on the IC50: it is the point on the concentration scale where inhibition reaches its midpoint.
